Assays:
[1] = target: T1, α-PsGal (recombinant wild-type α-D-galactosidase, GH36) (Pseudoalteromonas sp. KMM 701, UniProt Q19AX0); experiment: p-nitrophenol release at […] nm; type: biochemical; conditions: 0.05 M sodium phosphate, pH 7.0, 20 °C; Km only implied (3.32 mM stated as ~5 Km)
T1 construct: recombinant from pET-40b(+) in E. coli Rosetta (DE3); two identical subunits; catalytic Asp451 and Asp516
T1 sequence (Q19AX0 1-710): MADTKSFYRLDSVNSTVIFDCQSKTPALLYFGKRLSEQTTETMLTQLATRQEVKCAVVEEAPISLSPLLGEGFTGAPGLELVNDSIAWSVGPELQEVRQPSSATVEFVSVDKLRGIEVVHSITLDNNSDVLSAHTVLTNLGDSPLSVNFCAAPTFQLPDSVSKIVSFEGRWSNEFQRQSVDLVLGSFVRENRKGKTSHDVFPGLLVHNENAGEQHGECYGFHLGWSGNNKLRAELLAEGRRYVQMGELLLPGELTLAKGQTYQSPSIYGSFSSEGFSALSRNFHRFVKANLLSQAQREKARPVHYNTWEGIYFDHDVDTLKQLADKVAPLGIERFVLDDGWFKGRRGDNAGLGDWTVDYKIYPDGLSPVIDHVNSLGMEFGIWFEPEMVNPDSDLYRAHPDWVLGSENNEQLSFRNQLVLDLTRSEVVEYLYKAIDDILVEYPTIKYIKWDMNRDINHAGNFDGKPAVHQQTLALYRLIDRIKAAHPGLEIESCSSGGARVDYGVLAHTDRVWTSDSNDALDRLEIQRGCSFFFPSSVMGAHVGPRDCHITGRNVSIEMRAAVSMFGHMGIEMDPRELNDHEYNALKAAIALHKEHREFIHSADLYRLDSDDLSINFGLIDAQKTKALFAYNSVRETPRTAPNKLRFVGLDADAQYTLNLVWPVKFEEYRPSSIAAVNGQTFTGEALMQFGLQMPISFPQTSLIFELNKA

[2] = target: T1, α-PsGal (recombinant wild-type α-D-galactosidase, GH36); experiment: inhibition of pNP-α-Gal hydrolysis; type: biochemical; conditions: competitive; reaction product; active site; pH 7.0, 20 °C; read-out: decreased the activity on 50%

O=[N+]([O-])c1ccc(O[C@H]2O[C@H](CO)[C@H](O)[C@H](O)[C@H]2O)cc1 [4-nitrophenyl-α-D-galactopyranoside]
p-nitrophenol release at 400 nm [1]: p-nithrophenil galactopyranoside (pNP-α-Gal) for α-PsGal

OC[C@H]1OC(O)[C@H](O)[C@@H](O)[C@H]1O (stereo partly drawn) [D-galactose]
IC50 [2]: 700 µM

— paper PMC6356649, “Effect of Pentacyclic Guanidine Alkaloids from the Sponge Monanchora pulchra on Activity of α-Glycosidases from Marine Bacteria” (Marine Drugs, 2019)
